In patent US12310975B2, “Modulators of BCL6 proteolysis and associated methods of use” (Arvinas Operations, Inc., priority 2019, dated 2025) one finds IC50, Dmax and DC50 data, which are given here for 16 compounds.

The target of one test is BCL6 (Homo sapiens (Human), UniProt P41182). Kind of test: Immunofluorescence high content imaging of BCL6 degradation in T47D cells. The format is cell-based.
Settings: not given
The gist of the method:
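Seed T47D in RPMI1640-10% FBS to reach ~70-90% confluence at endpoint; add degrader next day (11-point 3-fold series, top 0.1 or 1 μM final) for 3 days. Then fix, permeabilize, stain BCL6 with nuclear Hoechst, and image.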
As a reminder, the IC50 is the midpoint of a concentration-inhibition curve. High values mean lower potency, low ones higher potency. `CNC(=O)COc1cc2cc(Nc3nc(N4CCN(CC5CCN(c6cccc(C(=O)NC7CCC(=O)NC7=O)c6F)CC5)CC4)ncc3Cl)ccc2n(C(C)C)c1=O` (stereo not drawn) [compound 296, 3-[4-({4-[5-chloro-4-({3-[(methylcarbamoyl)methoxy]-2-oxo-1-(propan-2-yl)-1,2-dihydroquinolin-6-yl}amino)pyrimidin-2-yl]piperazin-1-yl}methyl)piperidin-1-yl]-N-(2,6-dioxopiperidin-3-yl)-2-fluorobenzamide] showed a 50% inhibitory concentration (IC50) of under 10 nM.

The test is the same for the next values; noted with them: T47D.
What is called Dmax is the largest share of the target that was removed. `CNC(=O)COc1cc2cc(Nc3nc(N4CCN(CC5CCN(c6cccc(C(=O)NC7CCC(=O)NC7=O)c6F)CC5)CC4)ncc3Cl)ccc2n(C(C)C)c1=O` (stereo not drawn) [compound 296, 3-[4-({4-[5-chloro-4-({3-[(methylcarbamoyl)methoxy]-2-oxo-1-(propan-2-yl)-1,2-dihydroquinolin-6-yl}amino)pyrimidin-2-yl]piperazin-1-yl}methyl)piperidin-1-yl]-N-(2,6-dioxopiperidin-3-yl)-2-fluorobenzamide] had a Dmax of at least 70%.

The same test, now with this note: T47D cells.
Compound `CCn1c(=O)c(OCC(=O)NC)cc2cc(Nc3nc(N4CCC(OC5CN(C6CN(c7ccc8c(c7)C(=O)N(C7CCC(=O)NC7=O)C8=O)C6)C5)CC4)ncc3Cl)ccc21` (stereo not drawn) [compound 328, 2-{[6-({5-chloro-2-[4-({1′-[2-(2,6-dioxopiperidin-3-yl)-1,3-dioxo-2,3-dihydro-1H-isoindol-5-yl]-[1,3′-biazetidin]-3-yl}oxy)piperidin-1-yl]pyrimidin-4-yl}amino)-1-ethyl-2-oxo-1,2-dihydroquinolin-3-yl]oxy}-N-methylacetamide] showed a maximal degradation (Dmax) of 50 to 70% and an IC50 of under 10 nM.

For `CNC(=O)COc1cc2cc(Nc3nc(N4CCC(CN5CCC6(CC5)CN(c5ccc7c(c5)C(=O)N(C5CCC(=O)NC5=O)C7=O)C6)CC4)ncc3Cl)ccc2n(C(C)C)c1=O` (stereo not drawn) [compound 372, 2-{[6-({5-chloro-2-[4-({2-[2-(2,6-dioxopiperidin-3-yl)-1,3-dioxo-2,3-dihydro-1H-isoindol-5-yl]-2,7-diazaspiro[3.5]nonan-7-yl}methyl)piperidin-1-yl]pyrimidin-4-yl}amino)-2-oxo-1-(propan-2-yl)-1,2-dihydroquinolin-3-yl]oxy}-N-methylacetamide], the maximal degradation (Dmax) was in the range of 50 to 70% and the 50% inhibitory concentration (IC50) was under 10 nM.

Take `CNC(=O)COc1cc2cc(Nc3nc(N4CCC(OC5CCC6(CC5)CN(c5cccc7c5C(=O)N(C5CCC(=O)NC5=O)C7=O)C6)CC4)ncc3Cl)ccc2n(C(C)C)c1=O` (stereo not drawn) [compound 434, 2-{[6-({5-chloro-2-[4-({2-[2-(2,6-dioxopiperidin-3-yl)-1,3-dioxo-2,3-dihydro-1H-isoindol-4-yl]-2-azaspiro[3.5]nonan-7-yl}oxy)piperidin-1-yl]pyrimidin-4-yl}amino)-2-oxo-1-(propan-2-yl)-1,2-dihydroquinolin-3-yl]oxy}-N-methylacetamide]: the Dmax lay within 50 to 70% and the 50% inhibitory concentration (IC50) was under 10 nM.

On to `CNC(=O)COc1cc2cc(Nc3nc(N4CCN(CC5CCN(C(=O)c6ccc(N7CCC(=O)NC7=O)c(OC)c6)CC5)CC4)ncc3Cl)ccc2n(C(C)C)c1=O` [compound 408, 2-{[6-({5-chloro-2-[4-({1-[4-(2,4-dioxo-1,3-diazinan-1-yl)-3-methoxybenzoyl]piperidin-4-yl}methyl)piperazin-1-yl]pyrimidin-4-yl}amino)-2-oxo-1-(propan-2-yl)-1,2-dihydroquinolin-3-yl]oxy}-N-methylacetamide], for which the IC50 was at least 100 nM.

`CNC(=O)COc1cc2cc(Nc3nc(N4CCC5(CC4)CN(CC4CCN(c6ccc7c(c6)CN(C6CCC(=O)NC6=O)C7=O)CC4)C5)ncc3Cl)ccc2n(C(C)C)c1=O` (stereo not drawn) [compound 413, 2-{[6-({5-chloro-2-[2-({1-[2-(2,6-dioxopiperidin-3-yl)-1-oxo-2,3-dihydro-1H-isoindol-5-yl]piperidin-4-yl}methyl)-2,7-diazaspiro[3.5]nonan-7-yl]pyrimidin-4-yl}amino)-2-oxo-1-(propan-2-yl)-1,2-dihydroquinolin-3-yl]oxy}-N-methylacetamide] returned a Dmax of 50 to 70% and an IC50 of under 10 nM.

Still in this test, the particulars now being: class symbols A-D, read-out: EC50 (nM)*.
For the compound `CNC(=O)COc1cc2cc(Nc3nc(N4CCC(Cc5cn(CCOCC(=O)N[C@H](C(=O)N6C[C@H](O)C[C@H]6C(=O)N[C@@H](C)c6ccc(-c7scnc7C)cc6)C(C)(C)C)nn5)CC4)ncc3Cl)ccc2n(C)c1=O` [compound 122, (2S,4R)-1-((S)-2-(2-(2-(4-((1-(5-chloro-4-((1-methyl-3-(2-(methylamino)-2-oxoethoxy)-2-oxo-1,2-dihydroquinolin-6-yl)amino)pyrimidin-2-yl)piperidin-4-yl)methyl)-1H-1,2,3-triazol-1-yl)ethoxy)acetamido)-3,3-dimethylbutanoyl)-4-hydroxy-N-((S)-1-(4-(4-methylthiazol-5-yl)phenyl)ethyl)pyrrolidine-2-carboxamide], the DC50 is 50 to 100 nM.

As for `CNC(=O)COc1cc2cc(Nc3nc(N4CCC(OCCOCCOCCOCCOCCOCCOc5ccc6c(c5)C(=O)N(C5CCC(=O)NC5=O)C6=O)CC4)ncc3Cl)ccc2n(C)c1=O` (stereo not drawn) [compound 68, 2-((6-((5-chloro-2-(4-((17-((2-(2,6-dioxopiperidin-3-yl)-1,3-dioxoisoindolin-5-yl)oxy)-3,6,9,12,15-pentaoxaheptadecyl)oxy)piperidin-1-yl)pyrimidin-4-yl)amino)-1-methyl-2-oxo-1,2-dihydroquinolin-3-yl)oxy)-N-methylacetamide], the DC50 was over 100 nM.

With `CN1C(=O)CCc2cc(Nc3cc(OC4CCN(C(=O)COCCOc5ccc6c(c5)C(=O)N(C5CCC(=O)NC5=O)C6=O)CC4)c([N+](=O)[O-])cc3Cl)ccc21` (stereo not drawn) [compound 76, 5-(2-(2-(4-(4-chloro-5-((1-methyl-2-oxo-1,2,3,4-tetrahydroquinolin-6-yl)amino)-2-nitrophenoxy)piperidin-1-yl)-2-oxoethoxy)ethoxy)-2-(2,6-dioxopiperidin-3-yl)isoindoline-1,3-dione], the DC50 was over 100 nM.

In the case of `CNC(=O)COc1cc2cc(Nc3nc(N4CCC(OCCOCCOc5cc(-c6scnc6C)ccc5CNC(=O)[C@@H]5C[C@@H](O)CN5C(=O)C(c5cc(C)no5)C(C)C)CC4)ncc3Cl)ccc2n(C)c1=O` (stereo partly drawn) [compound 53, (2S,4R)-N-(2-(2-(2-((1-(5-chloro-4-((1-methyl-3-(2-(methylamino)-2-oxoethoxy)-2-oxo-1,2-dihydroquinolin-6-yl)amino)pyrimidin-2-yl)piperidin-4-yl)oxy)ethoxy)ethoxy)-4-(4-methylthiazol-5-yl)benzyl)-4-hydroxy-1-(3-methyl-2-(3-methylisoxazol-5-yl)butanoyl)pyrrolidine-2-carboxamide], the DC50 is over 100 nM.

For the compound `CNC(=O)COc1cc2cc(Nc3nc(N4CCC(Oc5cccc(OCCCCOCCOCCOc6ccc7c(c6)CN(C6CCC(=O)NC6=O)C7=O)c5)CC4)ncc3Cl)ccc2n(C)c1=O` (stereo not drawn) [compound 95, 2-((6-((5-chloro-2-(4-(3-(4-(2-(2-((2-(2,6-dioxopiperidin-3-yl)-1-oxoisoindolin-5-yl)oxy)ethoxy)ethoxy)butoxy)phenoxy)piperidin-1-yl)pyrimidin-4-yl)amino)-1-methyl-2-oxo-1,2-dihydroquinolin-3-yl)oxy)-N-methylacetamide], the DC50 was over 100 nM.

In the case of `CNC(=O)COc1cc2cc(Nc3nc(N4CCC(OCc5ccccc5OCCCCOCCOCCOc5ccc6c(c5)CN(C5CCC(=O)NC5=O)C6=O)CC4)ncc3Cl)ccc2n(C)c1=O` (stereo not drawn) [compound 136, 2-((6-((5-chloro-2-(4-((2-(4-(2-(2-((2-(2,6-dioxopiperidin-3-yl)-1-oxoisoindolin-5-yl)oxy)ethoxy)ethoxy)butoxy)benzyl)oxy)piperidin-1-yl)pyrimidin-4-yl)amino)-1-methyl-2-oxo-1,2-dihydroquinolin-3-yl)oxy)-N-methylacetamide], the DC50 is over 100 nM.

As to `CNC(=O)COc1cc2cc(Nc3nc(N4CCC(c5ccc(OCCCOCCOCCOc6ccc7c(c6)CN(C6CCC(=O)NC6=O)C7=O)cc5)CC4)ncc3Cl)ccc2n(C)c1=O` (stereo not drawn) [compound 89, 2-((6-((5-chloro-2-(4-(4-(3-(2-(2-((2-(2,6-dioxopiperidin-3-yl)-1-oxoisoindolin-5-yl)oxy)ethoxy)ethoxy)propoxy)phenyl)piperidin-1-yl)pyrimidin-4-yl)amino)-1-methyl-2-oxo-1,2-dihydroquinolin-3-yl)oxy)-N-methylacetamide], the DC50 is over 100 nM.

With `CNC(=O)COc1cc2cc(Nc3nc(N4CCC(OCCOCCOCCOCCNc5cccc6c5C(=O)N(C5CCC(=O)NC5=O)C6=O)CC4)ncc3Cl)ccc2n(C)c1=O` (stereo not drawn) [compound 66, 2-((6-((5-chloro-2-(4-(2-(2-(2-(2-((2-(2,6-dioxopiperidin-3-yl)-1,3-dioxoisoindolin-4-yl)amino)ethoxy)ethoxy)ethoxy)ethoxy)piperidin-1-yl)pyrimidin-4-yl)amino)-1-methyl-2-oxo-1,2-dihydroquinolin-3-yl)oxy)-N-methylacetamide], the DC50 is over 100 nM.

For `CNC(=O)COc1cc2cc(Nc3nc(N4CCC(c5cn(CCOCCOCCOc6ccc7c(c6)C(=O)N(C6CCC(=O)NC6=O)C7=O)nn5)CC4)ncc3Cl)ccc2n(C)c1=O` (stereo not drawn) [compound 120, 2-((6-((5-chloro-2-(4-(1-(2-(2-(2-((2-(2,6-dioxopiperidin-3-yl)-1,3-dioxoisoindolin-5-yl)oxy)ethoxy)ethoxy)ethyl)-1H-1,2,3-triazol-4-yl)piperidin-1-yl)pyrimidin-4-yl)amino)-1-methyl-2-oxo-1,2-dihydroquinolin-3-yl)oxy)-N-methylacetamide], the DC50 was in the range of 50 to 100 nM.

As for `CNC(=O)COc1cc2cc(Nc3nc(N4CCC(OCCOCCOCCOCC(=O)N[C@H](C(=O)N5C[C@H](O)C[C@H]5C(=O)NCc5ccc(-c6scnc6C)cc5)C(C)(C)C)CC4)ncc3Cl)ccc2n(C)c1=O` [compound 51, (2S,4R)-1-((S)-2-(tert-butyl)-14-((1-(5-chloro-4-((1-methyl-3-(2-(methylamino)-2-oxoethoxy)-2-oxo-1,2-dihydroquinolin-6-yl)amino)pyrimidin-2-yl)piperidin-4-yl)oxy)-4-oxo-6,9,12-trioxa-3-azatetradecanoyl)-4-hydroxy-N-(4-(4-methylthiazol-5-yl)benzyl)pyrrolidine-2-carboxamide], the DC50 was over 100 nM.
